Consider 26 compounds from ChEMBL document CHEMBL1138949, “Bromine- and iodine-substituted 16alpha,17alpha-dioxolane progestins for breast tumor imaging and radiotherapy: synthesis and receptor binding affinity” (J Med Chem, 2006).

In the first assay the target is T1, Progesterone receptor (Homo sapiens) (UniProt P06401).
T1 sequence (whole entry): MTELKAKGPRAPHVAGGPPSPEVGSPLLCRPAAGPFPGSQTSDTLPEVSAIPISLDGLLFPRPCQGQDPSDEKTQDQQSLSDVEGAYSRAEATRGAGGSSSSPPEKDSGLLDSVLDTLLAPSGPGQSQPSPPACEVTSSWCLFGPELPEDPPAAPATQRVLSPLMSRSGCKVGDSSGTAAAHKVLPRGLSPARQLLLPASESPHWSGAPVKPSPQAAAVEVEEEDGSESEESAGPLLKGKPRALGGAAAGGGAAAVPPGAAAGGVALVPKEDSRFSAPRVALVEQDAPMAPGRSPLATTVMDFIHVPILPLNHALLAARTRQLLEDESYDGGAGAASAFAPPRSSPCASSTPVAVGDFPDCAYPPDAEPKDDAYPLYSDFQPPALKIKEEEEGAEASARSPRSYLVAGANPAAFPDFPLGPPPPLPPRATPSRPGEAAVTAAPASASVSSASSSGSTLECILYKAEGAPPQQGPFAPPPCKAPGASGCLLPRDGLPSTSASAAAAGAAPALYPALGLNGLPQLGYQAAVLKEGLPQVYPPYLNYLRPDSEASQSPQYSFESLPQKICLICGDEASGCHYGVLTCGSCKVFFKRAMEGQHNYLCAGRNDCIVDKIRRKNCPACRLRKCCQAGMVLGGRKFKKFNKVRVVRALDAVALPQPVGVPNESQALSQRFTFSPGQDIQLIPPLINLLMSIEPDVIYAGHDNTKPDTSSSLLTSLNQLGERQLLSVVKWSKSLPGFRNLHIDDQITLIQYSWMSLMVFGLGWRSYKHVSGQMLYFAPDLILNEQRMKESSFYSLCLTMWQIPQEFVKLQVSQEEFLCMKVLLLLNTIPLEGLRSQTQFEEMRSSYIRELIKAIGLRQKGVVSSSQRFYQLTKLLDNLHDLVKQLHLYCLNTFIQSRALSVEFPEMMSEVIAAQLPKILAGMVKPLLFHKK
As to the kind of experiment: Inhibition of [3H]R5020 binding to human recombinant progesterone receptor relative to R5020.
Regarding `CC(=O)CC(=O)[C@@]12O[C@H](c3ccc(Br)o3)O[C@@H]1C[C@H]1[C@@H]3CCC4=CC(=O)CC[C@@H]4[C@H]3CC[C@@]12C`, the relative binding affinity (RBA) worked out at 7.1.

As to `C[C@]12CC[C@H]3[C@@H](CCC4=CC(=O)CC[C@@H]43)[C@@H]1C[C@H]1O[C@H](c3ccc(I)s3)O[C@]12C(=O)CO`, the relative binding affinity (RBA) was determined as 0.95.

With `C[C@]12CC[C@H]3[C@@H](CCC4=CC(=O)CC[C@@H]43)[C@@H]1C[C@H]1O[C@@H](c3ccc(I)cc3)O[C@]12C(=O)CF`, the relative binding affinity (RBA) is 6.4.

Take `C[C@]12CC[C@H]3[C@@H](CCC4=CC(=O)CC[C@@H]43)[C@@H]1C[C@H]1O[C@@H](c3ccc(I)cc3)O[C@]12C(=O)CO`: the relative binding affinity (RBA) turned out to be 0.81.

On to `C[C@]12CC[C@H]3[C@@H](CCC4=CC(=O)CC[C@@H]43)[C@@H]1C[C@H]1O[C@H](c3ccc(Br)cc3)O[C@]12C(=O)CF`, for which the relative binding affinity (RBA) was determined as 4.7.

For the compound `C[C@]12CC[C@H]3[C@@H](CCC4=CC(=O)CC[C@@H]43)[C@@H]1C[C@H]1O[C@H](c3ccc(Br)o3)O[C@]12C(=O)CO`, the relative binding affinity (RBA) worked out at 2.3.

For `C[C@]12CC[C@H]3[C@@H](CCC4=CC(=O)CC[C@@H]43)[C@@H]1C[C@H]1O[C@@H](c3ccc(Br)o3)O[C@]12C(=O)CF`, the relative binding affinity (RBA) came out at 24.

On to `CC(=O)CC(=O)[C@@]12O[C@@H](c3ccc(Br)o3)O[C@@H]1C[C@H]1[C@@H]3CCC4=CC(=O)CC[C@@H]4[C@H]3CC[C@@]12C`, for which the relative binding affinity (RBA) stood at 1.4.

As for `C[C@]12CC[C@H]3[C@@H](CCC4=CC(=O)CC[C@@H]43)[C@@H]1C[C@H]1O[C@@H](c3ccco3)O[C@]12C(=O)CF`, the relative binding affinity (RBA) was found to be 180.

For `C[C@]12CC[C@H]3[C@@H](CCC4=CC(=O)CC[C@@H]43)[C@@H]1C[C@H]1O[C@H](c3ccc(Br)o3)O[C@]12C(=O)CF`, the relative binding affinity (RBA) is 4.4.

As to `C[C@]12CC[C@H]3[C@@H](CCC4=CC(=O)CC[C@@H]43)[C@@H]1C[C@H]1O[C@H](c3ccc(I)cc3)O[C@]12C(=O)CF`, the relative binding affinity (RBA) stood at 34.

`C[C@]12CC[C@H]3[C@@H](CCC4=CC(=O)CC[C@@H]43)[C@@H]1C[C@H]1O[C@H](c3ccc(Br)cc3)O[C@]12C(=O)CO`: the relative binding affinity (RBA) was determined as 0.41.

`C[C@]12CC[C@H]3[C@@H](CCC4=CC(=O)CC[C@@H]43)[C@@H]1C[C@H]1O[C@@H](c3ccc(I)o3)O[C@]12C(=O)CO`: the relative binding affinity (RBA) was determined as 23.

As for `C[C@]12CC[C@H]3[C@@H](CCC4=CC(=O)CC[C@@H]43)[C@@H]1C[C@H]1O[C@H](c3ccco3)O[C@]12C(=O)CF`, the relative binding affinity (RBA) turned out to be 5.

Take `C[C@]12CC[C@H]3[C@@H](CCC4=CC(=O)CC[C@@H]43)[C@@H]1C[C@H]1O[C@H](c3ccc(Br)s3)O[C@]12C(=O)CO`: the relative binding affinity (RBA) turned out to be 1.7.

Turning to `C[C@]12CC[C@H]3[C@@H](CCC4=CC(=O)CC[C@@H]43)[C@@H]1C[C@H]1O[C@@H](c3ccc(Br)cc3)O[C@]12C(=O)CF`, the relative binding affinity (RBA) worked out at 3.9.

Consider `C[C@]12CC[C@H]3[C@@H](CCC4=CC(=O)CC[C@@H]43)[C@@H]1C[C@H]1O[C@@H](c3ccc(Br)o3)O[C@]12C(=O)CO`, for which the relative binding affinity (RBA) worked out at 65.

In the case of `C[C@]12CC[C@H]3[C@@H](CCC4=CC(=O)CC[C@@H]43)[C@@H]1C[C@H]1O[C@H](c3ccc(I)o3)O[C@]12C(=O)CF`, the relative binding affinity (RBA) was found to be 9.

For the compound `C[C@]12CC[C@H]3[C@@H](CCC4=CC(=O)CC[C@@H]43)[C@@H]1C[C@H]1O[C@@H](c3ccc(I)o3)O[C@]12C(=O)CF`, the relative binding affinity (RBA) is 40.

Take `C[C@]12CC[C@H]3[C@@H](CCC4=CC(=O)CC[C@@H]43)[C@@H]1C[C@H]1O[C@H](c3ccco3)O[C@]12C(=O)CO`: the relative binding affinity (RBA) worked out at 2.4.

Turning to `C[C@]12CC[C@H]3[C@@H](CCC4=CC(=O)CC[C@@H]43)[C@@H]1C[C@H]1O[C@H](c3ccc(I)cc3)O[C@]12C(=O)CO`, the relative binding affinity (RBA) amounted to 1.8.

Consider `C[C@]12CC[C@H]3[C@@H](CCC4=CC(=O)CC[C@@H]43)[C@@H]1C[C@H]1O[C@@H](c3ccc(Br)cc3)O[C@]12C(=O)CO`, for which the relative binding affinity (RBA) worked out at 23.

Regarding `C[C@]12CC[C@H]3[C@@H](CCC4=CC(=O)CC[C@@H]43)[C@@H]1C[C@H]1O[C@H](c3ccc(I)o3)O[C@]12C(=O)CO`, the relative binding affinity (RBA) was found to be 2.6.

Turning to `C[C@]12CC[C@H]3[C@@H](CCC4=CC(=O)CC[C@@H]43)[C@@H]1C[C@H]1O[C@@H](c3ccc(Br)s3)O[C@]12C(=O)CO`, the relative binding affinity (RBA) was determined as 5.2.

As for `C[C@]12CC[C@H]3[C@@H](CCC4=CC(=O)CC[C@@H]43)[C@@H]1C[C@H]1O[C@@H](c3ccco3)O[C@]12C(=O)CO`, the relative binding affinity (RBA) was 53.

Regarding `C[C@]12CC[C@H]3[C@@H](CCC4=CC(=O)CC[C@@H]43)[C@@H]1C[C@H]1O[C@@H](c3ccc(I)s3)O[C@]12C(=O)CO`, the relative binding affinity (RBA) came to 3.2.

For the next assay, the target named is T2, Progesterone receptor (Rattus norvegicus) (UniProt Q63449).
T2 sequence (whole entry): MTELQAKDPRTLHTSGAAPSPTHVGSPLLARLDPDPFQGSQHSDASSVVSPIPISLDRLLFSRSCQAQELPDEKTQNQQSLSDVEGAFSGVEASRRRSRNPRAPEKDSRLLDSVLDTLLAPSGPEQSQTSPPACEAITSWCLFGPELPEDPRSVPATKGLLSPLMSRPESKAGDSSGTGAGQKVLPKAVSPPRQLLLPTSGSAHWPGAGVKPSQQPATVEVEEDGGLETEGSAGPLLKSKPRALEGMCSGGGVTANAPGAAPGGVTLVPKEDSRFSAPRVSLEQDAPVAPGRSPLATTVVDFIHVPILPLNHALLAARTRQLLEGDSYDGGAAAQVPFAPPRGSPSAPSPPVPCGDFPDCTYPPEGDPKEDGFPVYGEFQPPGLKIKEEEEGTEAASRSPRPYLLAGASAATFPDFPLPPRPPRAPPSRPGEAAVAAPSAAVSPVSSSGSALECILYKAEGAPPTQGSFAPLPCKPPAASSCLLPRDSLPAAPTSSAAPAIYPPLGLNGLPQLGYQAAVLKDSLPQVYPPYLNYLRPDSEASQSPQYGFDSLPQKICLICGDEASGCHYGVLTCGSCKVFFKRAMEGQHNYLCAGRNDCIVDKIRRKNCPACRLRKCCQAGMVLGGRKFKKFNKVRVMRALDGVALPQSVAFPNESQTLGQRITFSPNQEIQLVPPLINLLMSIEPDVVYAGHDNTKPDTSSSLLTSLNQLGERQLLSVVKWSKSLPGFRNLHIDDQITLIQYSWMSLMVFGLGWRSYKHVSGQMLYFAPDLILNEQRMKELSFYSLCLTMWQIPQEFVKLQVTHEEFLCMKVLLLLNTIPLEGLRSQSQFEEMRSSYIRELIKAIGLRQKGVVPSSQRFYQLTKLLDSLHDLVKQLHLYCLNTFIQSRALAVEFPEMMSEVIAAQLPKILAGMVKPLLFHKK
As to the kind of experiment: Inhibition of [3H]R5020 binding to rat uterine progesterone receptor relative to R5020.
The compound `C[C@]12CC[C@H]3[C@@H](CCC4=CC(=O)CC[C@@H]43)[C@@H]1C[C@H]1O[C@@H](c3ccco3)O[C@]12C(=O)CF` displayed a relative binding affinity (RBA) of 190.

For the compound `C[C@]12CC[C@H]3[C@@H](CCC4=CC(=O)CC[C@@H]43)[C@@H]1C[C@H]1O[C@H](c3ccco3)O[C@]12C(=O)CF`, the relative binding affinity (RBA) worked out at 11.

Compound `C[C@]12CC[C@H]3[C@@H](CCC4=CC(=O)CC[C@@H]43)[C@@H]1C[C@H]1O[C@H](c3ccco3)O[C@]12C(=O)CO` registered a relative binding affinity (RBA) of 2.5.

`C[C@]12CC[C@H]3[C@@H](CCC4=CC(=O)CC[C@@H]43)[C@@H]1C[C@H]1O[C@@H](c3ccco3)O[C@]12C(=O)CO` displayed a relative binding affinity (RBA) of 55.
